Structures can show the parent of a compound that is named as a salt. Bounds are passed on as bounds.

In ChEMBL document CHEMBL1128796, “2-Substituted 2-aminoethanol: Minimum essential structure for immunosuppressive activity of ISP-I (Myriocin)” (Bioorg Med Chem Lett, 1995) one finds IC50 data, which are given here for 7 compounds.

The species named for the assay is Mus musculus. Description: Effect on mouse allogenic mixed lymphocyte reaction (MLR). In kind it is functional.
`CCCCCCCCCCCCCCCCCCC(CO)CO`: the IC50 is above 10 µM.

In turn, `CCCCCCCCc1ccc(CCC(N)CO)cc1` (configuration not stated) came in with an IC50 of 0.011 µM. That is a double-digit nanomolar value.

Take `CCCCCCCCCCCCCCCCCCC(N)CO` (configuration not stated): half-maximal inhibition (IC50) required 0.14 µM. This IC50 is about 13-fold higher than that of the compound before.

As to `CCCCCCC(=O)CCCCCC/C=C/C[C@@H](O)[C@H](O)[C@@](N)(CO)C(=O)O` [MYRIOCIN], the IC50 amounted to 0.008 µM. This IC50 lies about 18-fold lower than the previous one.

As to `CCCCCCCCCCCCCCCCCCN` [OCTADECYLAMINE], the IC50 was above 10 µM.

With `CCCCCCCCCCCCCCCCCCC(N)(CO)CO`, the half-maximal inhibitory concentration (IC50) was 0.012 µM.

Compound `CCCCCCCCc1ccc(CCC(N)(CO)CO)cc1` [FINGOLIMOD HYDROCHLORIDE] returned an IC50 of 0.0061 µM.
